# Reference: patent US9695155B2, “Herbicidal substituted pyrimidinyloxy benzene compounds” (E. I. DU PONT DE NEMOURS AND COMPANY, priority 2013, dated 2017)
# Key:
# [1] = test system: goosegrass; assay: Test E preemergence; assay type: in vivo, Eleusine indica; conditions: for Goosegrass plant response rating: scale 0 to 100 (0 no effect, 100 complete control)
# Summary of the method: (§1)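 Compound in a non-phytotoxic solvent mixture with surfactant was applied preemergence to seeds in silt loam soil, or postemergence to plants 2 to 18 cm tall grown in peat-based potting medium. Plants were kept in a greenhouse for 14 to 21 days, then rated visually against untreated controls on a 0 (no effect) to 100 (complete control) scale.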
# [2] = test system: corn; assay: Test E preemergence; assay type: in vivo, Zea mays; conditions: for Corn plant response rating: scale 0 to 100 (0 no effect, 100 complete control)
# Excerpt: (§2) Seeds of plant species selected from corn (Zea mays), soybean (Glycine max), velvetleaf (Abutilon theophrasti), lambsquarters (Chenopodium album), wild poinsettia (Euphorbia heterophylla), palmer pigweed (Amaranthus palmeri), waterhemp (common waterhemp, Amaranthus rudis), surinam grass (Brachiaria decumbens), large (Lg) crabgrass (Digitaria sanguinalis), Brazilian crabgrass (Digitaria horizontalis), fall panicum (Panicum dichotomiflorum), giant foxtail (Setaria faberii), green foxtail (Setaria viridis), goosegrass (Eleusine indica), johnsongrass (Sorghum halepense), ragweed (common ragweed, Ambrosia elatior), barnyardgrass (Echinochloa crus-galli), sandbur (southern sandbur, Cenchrus echinatus), arrowleaf sida (Sida rhombifolia), Italian ryegrass (Lolium multiflorum), dayflower (Virginia (VA) dayflower, Commelina virginica), field bindweed (Convolvulus arvensis), morningglory (Ipomoea coccinea), nightshade (eastern black nightshade, Solanum ptycanthum), kochia (Kochia scoparia), yellow nutsedge (Cyperus esculentus), cocklebur (common cocklebur, Xanthium strumarium), smartweed (ladysthumb smartweed, and hairy beggarticks (Bidens pilosa), were planted into a silt loam soil and treated preemergence with test chemicals formulated in a non-phytotoxic solvent mixture which included a surfactant.
# (§3) At the same time, plants from these crop and weed species and also horseweed (Canada horseweed, Conyza canadensis), waterhemp_RES1, (ALS & Triazine resistant common waterhemp, Amaranthus rudis), and waterhemp_RES2, (ALS & HPPD resistant common waterhemp, Amaranthus rudis) were planted in pots containing Redi-Earth® planting medium (Scotts Company, 14111 Scottslawn Road, Marysville, Ohio 43041) comprising spaghnum peat moss, vermiculite, wetting agent and starter nutrients were treated with postemergence applications of test chemicals formulated in the same manner. Plants ranged in height from 2 to 18 cm for postemergence treatments (1- to 4-leaf stage). Treated plants and controls were maintained in a greenhouse for 14 to 21 days, after which time all species were compared to controls and visually evaluated. Plant response ratings, summarized in Table E, are based on a scale of 0 to 100 where 0 is no effect and 100 is complete control. A dash (-) response means no test result.
# [3] = test system: johnsongrass; assay: Test E preemergence; assay type: in vivo, Sorghum halepense; conditions: for Johnsongrass plant response rating: scale 0 to 100 (0 no effect, 100 complete control)
# Summary of the method: as §1
# [4] = test system: Italian ryegrass; assay: Test A postemergence; assay type: in vivo, Lolium multiflorum
# Summary of the method: (§4)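 Visual 0–100 rating (100 = complete control) taken about 10 d post-treatment relative to untreated checks. Preemergence: directed soil spray on sown loam/sand pots. Postemergence: seedlings 2–10 cm, 1–2 leaf. Non-phytotoxic solvent formulation with surfactant.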
# [5] = test system: barnyardgrass; assay: Test E preemergence; assay type: in vivo, Echinochloa crus-galli; conditions: for Barnyardgrass plant response rating: scale 0 to 100 (0 no effect, 100 complete control)
# Summary of the method: as §1
# [6] = test system: Italian ryegrass; assay: Test A preemergence; assay type: in vivo, Lolium multiflorum
# Summary of the method: as §4
# [7] = test system: arrowleaf sida; assay: Test E preemergence; assay type: in vivo, Sida rhombifolia; conditions: for Arrowleaf Sida plant response rating: scale 0 to 100 (0 no effect, 100 complete control)
# Summary of the method: as §1
# [8] = test system: field bindweed; assay: Test E preemergence; assay type: in vivo, Convolvulus arvensis; conditions: for Field Bindweed plant response rating: scale 0 to 100 (0 no effect, 100 complete control)
# Excerpt: as §2, §3
# [9] = test system: galium; assay: Test A postemergence; assay type: in vivo, Galium aparine
# Summary of the method: as §4
# [10] = test system: morningglory; assay: Test E preemergence; assay type: in vivo, Ipomoea coccinea; conditions: for Morningglory plant response rating: scale 0 to 100 (0 no effect, 100 complete control)
# Summary of the method: as §1
# [11] = test system: ragweed; assay: Test A postemergence; assay type: in vivo, Ambrosia elatior
# Summary of the method: as §4
# [12] = test system: giant foxtail; assay: Test E preemergence; assay type: in vivo, Setaria faberii; conditions: for Foxtail, Giant plant response rating: scale 0 to 100 (0 no effect, 100 complete control)
# Excerpt: as §2, §3
# [13] = 125 g ai/ha, scale 0 to 100, 0 no effect, 100 complete control
# [14] = 125 g ai/ha, 0 to 100 scale where 0 is no effect and 100 is complete control
# [15] = 500 g ai/ha, 0 to 100 scale where 0 is no effect and 100 is complete control
# [16] = preemergence, 125 g ai/ha, scale 0 to 100, 0 no effect, 100 complete control
# [17] = 31 g ai/ha, 0 to 100 scale, 0 no effect, 100 complete control
# [18] = 125 g ai/ha, 0 to 100 scale, 0 no effect, 100 complete control
# [19] = Preemergence, 62 g ai/ha, scale 0 to 100, 0 no effect, 100 complete control
# [20] = 8 g ai/ha, scale 0 to 100, 0 is no effect, 100 is complete control
# [21] = 8 g ai/ha, preemergence, scale 0 to 100, 0 is no effect, 100 is complete control
SMILES,Goosegrass plant response rating ([1]; 31 g ai/ha),Goosegrass plant response rating ([1]; 62 g ai/ha),"Plant response rating, Goosegrass [1, 13]",Corn plant response rating ([2]; 16 g ai/ha),Corn plant response rating ([2]; 31 g ai/ha),Corn plant response rating ([2]; 62 g ai/ha),"Plant response rating, Corn [2, 13]",Johnsongrass plant response rating ([3]; 31 g ai/ha),Johnsongrass plant response rating ([3]; 62 g ai/ha),"Plant response rating, Johnsongrass [3, 13]","Barnyardgrass plant response rating ([5]; 16 g ai/ha, preemergence)","Barnyardgrass plant response rating ([5]; 31 g ai/ha, preemergence)","Plant response rating, Barnyardgrass [5, 16]","Arrowleaf Sida plant response rating ([7]; 16 g ai/ha, preemergence)","Arrowleaf Sida plant response rating ([7]; 31 g ai/ha, preemergence)","Plant response rating, Arrowleaf Sida [7, 16]",Field Bindweed plant response rating ([8]; 16 g ai/ha),Field Bindweed plant response rating ([8]; 31 g ai/ha),Field Bindweed plant response rating ([8]; 62 g ai/ha),"Plant response rating, Field Bindweed [8, 13]",further results
"FC(F)(F)COc1cnn(-c2ccccc2Oc2ncc(Cl)cn2)c1 [Compound 138, 5-chloro-2-[2-[4-(2,2,2-trifluoroethoxy)-1H-pyrazol-1-yl]phenoxy]pyrimidine]",30,50,70,0,0,15,35,0,35,40,0,0,60,0,0,100,0,20,40,50,"Goosegrass plant response rating ([1]; 16 g ai/ha): 10; Johnsongrass plant response rating ([3]; 16 g ai/ha): 0; Ryegrass, Italian plant response rating [4, 14]: 40; Plant response rating, Ryegrass, Italian [4, 15]: 90; Barnyardgrass plant response rating ([5]; 62 g ai/ha, preemergence): 15; Plant response rating, Ryegrass, Italian [6, 14]: 0; Ryegrass, Italian plant response rating [6, 15]: 50; Arrowleaf Sida plant response rating ([7]; 62 g ai/ha, preemergence): 40; Galium plant response rating [9, 14]: 90; Plant response rating, Galium [9, 15]: 100; Morningglory plant response rating ([10]; 16 g ai/ha): 0; Morningglory plant response rating ([10]; 31 g ai/ha): 0; Morningglory plant response rating ([10]; 62 g ai/ha): 0; Plant response rating, Morningglory [10, 13]: 40; Ragweed plant response rating [11, 14]: 30; Plant response rating, Ragweed [11, 15]: 60; Foxtail, Giant plant response rating ([12]; 16 g ai/ha): 0; Foxtail, Giant plant response rating ([12]; 31 g ai/ha): 0; Foxtail, Giant plant response rating ([12]; 62 g ai/ha): 30; Plant response rating, Foxtail, Giant [12, 13]: 75"
FCc1cccc(Oc2ncc(Cl)cn2)c1-n1cc(Cl)cn1 [Compound 250],0,0,65,0,0,0,20,0,0,50,0,0,25,0,20,100,0,0,0,0,"Plant response rating, Ryegrass, Italian [4, 17]: 0; Plant response rating, Ryegrass, Italian [4, 18]: 0; Barnyardgrass plant response rating ([5]; 62 g ai/ha, preemergence): 0; Plant response rating, Ryegrass, Italian ([6]; 31 g ai/ha, 0 to 100 scale where 0 is no effect and 100 is complete control, visual, approximately 10 days): 0; Ryegrass, Italian plant response rating (0 to 100 scale) ([6]; 125 g ai/ha): 0; Arrowleaf Sida plant response rating ([7]; 62 g ai/ha, preemergence): 60; Plant response rating, Galium [9, 17]: 10; Plant response rating, Galium [9, 18]: 60; Morningglory plant response rating ([10]; 31 g ai/ha): 0; Morningglory plant response rating ([10]; 62 g ai/ha): 0; Plant response rating, Morningglory [10, 13]: 20; Plant response rating, Ragweed [11, 17]: 50; Plant response rating, Ragweed [11, 18]: 100; Foxtail, Giant plant response rating ([12]; 16 g ai/ha): 0; Foxtail, Giant plant response rating ([12]; 31 g ai/ha): 0; Foxtail, Giant plant response rating ([12]; 62 g ai/ha): 15; Plant response rating, Foxtail, Giant [12, 13]: 98"
N#Cc1cnn(-c2c(C#N)cccc2Oc2ncc(F)cn2)c1 [Compound 111],5,40,65,0,0,0,15,0,15,70,0,0,35,40,50,98,15,15,60,80,"Goosegrass plant response rating ([1]; 16 g ai/ha): 0; Johnsongrass plant response rating ([3]; 16 g ai/ha): 0; Plant response rating, Barnyardgrass [5, 19]: 0; Plant response rating, Arrowleaf Sida [7, 19]: 70; Morningglory plant response rating ([10]; 16 g ai/ha): 20; Morningglory plant response rating ([10]; 31 g ai/ha): 35; Morningglory plant response rating ([10]; 62 g ai/ha): 75; Plant response rating, Morningglory [10, 13]: 75; Foxtail, Giant plant response rating ([12]; 16 g ai/ha): 0; Foxtail, Giant plant response rating ([12]; 31 g ai/ha): 0; Foxtail, Giant plant response rating ([12]; 62 g ai/ha): 70; Plant response rating, Foxtail, Giant [12, 13]: 100"
"Clc1cnc(Oc2ccccc2-n2cc(Br)cn2)nc1 [Compound 7, 2-[2-(4-bromo-1H-pyrazol-1-yl)phenoxy]-5-chloropyrimidine]",35,40,75,0,0,0,0,0,40,50,0,0,0,0,25,80,0,0,0,0,"Plant response rating, Goosegrass [1, 20]: 0; Goosegrass plant response rating ([1]; 16 g ai/ha): 0; Plant response rating, Corn [2, 20]: 0; Plant response rating, Johnsongrass [3, 20]: 0; Johnsongrass plant response rating ([3]; 16 g ai/ha): 0; Plant response rating, Barnyardgrass [5, 21]: 0; Plant response rating, Barnyardgrass [5, 19]: 0; Plant response rating, Arrowleaf Sida [7, 21]: 0; Plant response rating, Arrowleaf Sida [7, 19]: 50; Plant response rating, Field Bindweed [8, 20]: 0; Plant response rating, Morningglory [10, 20]: 0; Morningglory plant response rating ([10]; 16 g ai/ha): 0; Morningglory plant response rating ([10]; 31 g ai/ha): 0; Morningglory plant response rating ([10]; 62 g ai/ha): 0; Plant response rating, Morningglory [10, 13]: 0; Plant response rating, Foxtail, Giant [12, 20]: 15; Foxtail, Giant plant response rating ([12]; 16 g ai/ha): 20; Foxtail, Giant plant response rating ([12]; 31 g ai/ha): 20; Foxtail, Giant plant response rating ([12]; 62 g ai/ha): 40; Plant response rating, Foxtail, Giant [12, 13]: 90"
